For series [1], the target named is T1, 5-hydroxytryptamine receptor 2A (Homo sapiens, UniProt P28223). Nature of the series: Agonist activity at human 5HT2A receptor. The series is classed as functional.
For series [2], the target named is T1, 5-hydroxytryptamine receptor 2A. Put plainly: Agonist activity at N-terminal HA-tagged human 5HT2A receptor. The series is classed as functional.
Series [3] has as its target T2, 5-hydroxytryptamine receptor 2C (Homo sapiens, UniProt P28335).
T2 sequence (P28335 whole entry): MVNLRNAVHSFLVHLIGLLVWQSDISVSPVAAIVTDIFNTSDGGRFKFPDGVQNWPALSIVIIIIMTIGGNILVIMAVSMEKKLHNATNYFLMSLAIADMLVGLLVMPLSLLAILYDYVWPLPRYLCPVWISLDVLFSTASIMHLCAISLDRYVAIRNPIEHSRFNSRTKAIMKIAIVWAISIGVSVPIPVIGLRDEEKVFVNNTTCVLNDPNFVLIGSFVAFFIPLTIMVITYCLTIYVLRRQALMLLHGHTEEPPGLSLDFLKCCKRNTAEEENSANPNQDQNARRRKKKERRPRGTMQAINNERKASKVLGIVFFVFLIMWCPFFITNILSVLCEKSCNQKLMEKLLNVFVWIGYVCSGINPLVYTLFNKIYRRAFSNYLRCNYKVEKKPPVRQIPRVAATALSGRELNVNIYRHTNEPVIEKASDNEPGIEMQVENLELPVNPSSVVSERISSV
Nature of the series: Agonist activity at 5HT2C receptor (unknown origin). The format is functional.

Series [4] concerns the target T1, 5-hydroxytryptamine receptor 2A. Put plainly: Agonist activity at 5HT2A receptor (unknown origin) at 10 uM relative to control. The format is functional.
In series [5] the target is T3, 5-hydroxytryptamine receptor 2C (Homo sapiens) (UniProt P28335).
T3 sequence (whole entry): T2 sequence (P28335 whole entry)
Put plainly: Agonist activity at 5HT2C receptor (unknown origin) at 10 uM relative to control. The format is functional. As to conditions: filed as agonist.

The species entered for series [6] is Homo sapiens. Put plainly: Selectivity ratio of Ki for sigma 2 receptor (unknown origin) to Ki for sigma 1 receptor assessed as inhibition of constant.
Series [7] deals with Sigma non-opioid intracellular receptor 1 (Homo sapiens, UniProt Q99720). Nature of the series: Binding affinity to sigma1 receptor (unknown origin) assessed as inhibition constant.
Chain of Sigma non-opioid intracellular receptor 1 (Q99720 whole entry): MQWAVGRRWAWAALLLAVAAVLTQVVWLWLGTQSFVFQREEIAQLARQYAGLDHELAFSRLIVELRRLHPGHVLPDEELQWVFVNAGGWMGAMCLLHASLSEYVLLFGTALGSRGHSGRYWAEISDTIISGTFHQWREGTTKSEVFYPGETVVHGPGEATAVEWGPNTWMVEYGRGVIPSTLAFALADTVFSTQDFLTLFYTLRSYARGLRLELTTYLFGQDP
Series [8] addresses Sigma intracellular receptor 2 (Homo sapiens, UniProt Q5BJF2). Nature of the series: Binding affinity to sigma 2 receptor (unknown origin) assessed as inhibition constant.
A short description of series [9]: Effect on emotional-affective response in USV-induced Sprague-Dawley rat assessed as reduction in ultrasonic vocalization. The format is functional. As to conditions: read-out: MED.
For series [10], the species on record is Mus musculus. Nature of the series: Antidepressant activity in Swiss albino mouse assessed as minimum effective dose by tail suspension test. The format is functional. Particulars: read-out: MED.
For series [11], the species on record is Mus musculus. Put plainly: Antidepressant activity in USV-induced Swiss albino mouse model of depression assessed as minimum effective dose. The format is functional. Particulars: read-out: MED.
The nature of series [12]: Terminal elimination half life in Sprague-Dawley rat at 12 mg/kg, po. As to conditions: in vivo, read-out: beta t1/2 (converted). The format is ADME, organism-based.
For series [13], the target named is T4, Melatonin receptor type 1B (Homo sapiens, UniProt P49286).
T4 sequence (P49286 whole entry): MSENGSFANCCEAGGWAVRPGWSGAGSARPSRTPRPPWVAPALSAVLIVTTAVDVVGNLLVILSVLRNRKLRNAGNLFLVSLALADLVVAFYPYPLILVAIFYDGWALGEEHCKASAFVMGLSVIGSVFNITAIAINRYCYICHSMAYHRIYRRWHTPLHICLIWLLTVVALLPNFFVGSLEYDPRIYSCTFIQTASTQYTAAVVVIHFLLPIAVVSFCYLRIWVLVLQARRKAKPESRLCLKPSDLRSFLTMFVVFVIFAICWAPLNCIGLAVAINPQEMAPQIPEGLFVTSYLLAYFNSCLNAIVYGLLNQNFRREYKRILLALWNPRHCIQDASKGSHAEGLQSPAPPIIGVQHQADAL
Put plainly: Binding affinity to MT2 receptor (unknown origin) assessed as inhibition constant.

The nature of series [14]: Binding affinity to MT1 receptor (unknown origin) assessed as inhibition constant. Also noted: species or system Homo sapiens.
Series [15] has as its target T1, 5-hydroxytryptamine receptor 2A. Put plainly: Agonist activity at N-terminal HA-tagged human 5HT2A receptor at 1 uM relative to control. The format is functional.
Series [16] concerns the target T5, 5-hydroxytryptamine receptor 2B (Homo sapiens, UniProt P41595). Put plainly: Agonist activity at 5HT2B (unknown origin) at 1 uM relative to control. The format is functional.
The target in series [17] is T5, 5-hydroxytryptamine receptor 2B. Nature of the series: Agonist activity at 5HT2B (unknown origin). The format is functional.
In series [18] the target is T3, 5-hydroxytryptamine receptor 2C (Homo sapiens). Put plainly: Agonist activity at 5HT2C receptor (unknown origin) at 1 uM relative to control. Particulars: filed as agonist. The format is functional.

T1 sequence (P28223 whole entry): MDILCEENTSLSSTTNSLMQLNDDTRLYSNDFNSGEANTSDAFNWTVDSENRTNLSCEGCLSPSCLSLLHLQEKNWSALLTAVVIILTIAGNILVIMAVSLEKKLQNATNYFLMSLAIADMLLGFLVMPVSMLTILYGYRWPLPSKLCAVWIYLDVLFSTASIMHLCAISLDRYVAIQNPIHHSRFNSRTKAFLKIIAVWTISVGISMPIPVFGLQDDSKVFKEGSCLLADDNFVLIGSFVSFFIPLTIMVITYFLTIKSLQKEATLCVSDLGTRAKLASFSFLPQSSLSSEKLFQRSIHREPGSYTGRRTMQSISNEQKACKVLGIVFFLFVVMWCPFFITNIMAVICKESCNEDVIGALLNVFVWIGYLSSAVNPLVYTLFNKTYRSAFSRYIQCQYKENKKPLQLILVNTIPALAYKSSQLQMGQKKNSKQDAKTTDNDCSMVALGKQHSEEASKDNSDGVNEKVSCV
T5 sequence (P41595 whole entry): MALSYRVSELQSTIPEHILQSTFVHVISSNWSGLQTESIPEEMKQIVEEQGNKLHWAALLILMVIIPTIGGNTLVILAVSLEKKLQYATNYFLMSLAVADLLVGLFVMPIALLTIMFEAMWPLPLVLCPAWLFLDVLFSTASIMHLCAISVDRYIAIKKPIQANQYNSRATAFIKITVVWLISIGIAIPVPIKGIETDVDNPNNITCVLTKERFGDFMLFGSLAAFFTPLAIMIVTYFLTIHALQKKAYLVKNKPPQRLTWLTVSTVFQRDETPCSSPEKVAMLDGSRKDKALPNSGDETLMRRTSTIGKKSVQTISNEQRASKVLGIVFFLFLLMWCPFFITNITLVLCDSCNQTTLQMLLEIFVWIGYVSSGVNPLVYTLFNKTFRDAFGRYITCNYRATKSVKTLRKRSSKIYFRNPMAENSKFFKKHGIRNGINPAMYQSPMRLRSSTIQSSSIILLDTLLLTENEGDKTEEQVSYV
Chain of Sigma intracellular receptor 2 (Q5BJF2 whole entry): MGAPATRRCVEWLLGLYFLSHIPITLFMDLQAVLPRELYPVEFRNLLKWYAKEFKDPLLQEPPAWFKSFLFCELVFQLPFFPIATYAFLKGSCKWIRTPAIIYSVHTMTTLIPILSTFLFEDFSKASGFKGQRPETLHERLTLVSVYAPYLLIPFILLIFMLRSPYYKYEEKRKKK

Usually EC50 stands for the midpoint of the concentration-response curve. Turning to `CC1(C)Cc2cc(Cl)cc([C@H]3C[C@H]3CN)c2O1`, the EC50 in series [1] came out at 600 nM.
By Emax is commonly meant the greatest response seen or fitted, relative to the assay's reference. `NC[C@@H]1C[C@@H]1c1cc(O)ccc1OCC1CC1`: the EC50 was found to be 372 nM in series [2] and 9.3 nM in [3]. For the same molecule, the Emax in [4] amounted to 18%; in series [5], 70%.
Usually Ki stands for the dissociation constant of the complex between target and ligand, obtained from inhibition or displacement. Take `COC(=O)[C@]1(c2ccccc2)C[C@@H]1CN1CCC(O)(c2ccc(Cl)cc2)CC1`: in series [6], the Selectivity ratio is 5.5. For the same molecule, the values for the Ki in [7] and in [8] were 1.51 nM and 21.9 nM, respectively.
For the molecule `CCN(CC)C(=O)[C@@]1(c2ccccc2)C[C@H]1CN` [LEVOMILNACIPRAN], the minimal effective dose is 5 mg/kg in series [9], 2.5 mg/kg in [10] and 20 mg/kg in series [11]. In series [12], the half-life was 12 h.
For `CCC(=O)NC[C@@H]1C[C@H]1c1cccc2c1CCO2` [TASIMELTEON], the Ki in [13] came to 0.07 nM; in series [14] it was 0.3 nM.
For `NC[C@@H]1C[C@@H]1c1cc(F)ccc1OCC1CC1`, the figures for the EC50 in series [2], in series [3] and in series [17] were 894 nM, 21 nM and 289 nM, respectively. Further, the values for the Emax in series [15], in [16] and in series [18] were 29%, 21% and 71%, respectively.
